Target: T1, K316E/D391K/R459E GAC mutant (Mus musculus, UniProt D3Z7P3, D391K/K316E/R459E)
T1 construct: (residues 72-603) was cloned into a pET23a vector; made in house
T1 sequence (D3Z7P3 72-603 isoform D3Z7P3-2 K316E/D391K/R459E): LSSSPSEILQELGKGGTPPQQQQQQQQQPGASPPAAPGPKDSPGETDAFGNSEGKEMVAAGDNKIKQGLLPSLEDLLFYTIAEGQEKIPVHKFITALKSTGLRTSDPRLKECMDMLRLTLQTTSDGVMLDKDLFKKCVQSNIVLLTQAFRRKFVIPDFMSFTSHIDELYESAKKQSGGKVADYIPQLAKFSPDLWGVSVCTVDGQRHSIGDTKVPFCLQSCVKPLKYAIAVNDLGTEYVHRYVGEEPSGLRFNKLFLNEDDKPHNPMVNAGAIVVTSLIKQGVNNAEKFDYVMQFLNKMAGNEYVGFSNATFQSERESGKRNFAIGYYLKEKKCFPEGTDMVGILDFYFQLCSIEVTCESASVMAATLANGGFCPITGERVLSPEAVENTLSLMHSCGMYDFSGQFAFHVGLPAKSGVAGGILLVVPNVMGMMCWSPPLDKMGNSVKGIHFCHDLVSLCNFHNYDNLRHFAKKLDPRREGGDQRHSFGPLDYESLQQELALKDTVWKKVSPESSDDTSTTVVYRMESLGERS
Assay: In vitro photo cross linking of SU-22 and purification of the conjugate
Format: binding
Experimental: Glutaminase proteins of the WT sequence, or containing the mutations D391K alone, or the mutations K316E/D391K/R459E, were purified as detailed in Example 3 supra. These glutaminase proteins were incubated with increasing concentrations of the compound SU-22, and excited with a hand held UV lamp for 120 seconds. Immediately following UV exposure, samples were loaded onto a 4-20% Tris-Glycine polyacrylamide gel after the addition of SDS-PAGE sample buffer (50 mM Tris-HCl (pH=6.8), 2% SDS, 10% glycerol, 1% β-mercaptoethanol, 12.5 mM EDTA, 0.02% bromophenol blue), and visualized on a UV light box.
Conditions of in vitro cross linking of WT GAC, and the K316E/D391K/R459E GAC mutant were adapted for efficient cross linking and purification of the cross linked protein product. WT GAC and the K316E/D391K/R459E GAC mutant, both containing the N-terminal His-tag, were diluted to a concentration of 100 nM in 20 mM Tris-HCl (pH=8.6) 100 mM NaCl, upon which 10 μM of SU-22 was added. […] The purified cross linked protein was then concentrated using spin columns with a 30 kD molecular weight cutoff and quantified using UV-vis spectroscopy, where the protein was quantified using the A280 (ε280=38,850 M−1 cm−1) and the cross-linked SU-22 using the A350 (ε350=18,900 M−1 cm−1). […]

CC1(C)CC(=O)C2=C(C1)c1c(ccc3cc4ccccc4cc13)NC2c1ccc(N=[N+]=[N-])cc1 (centres unmarked) [SU-22]
ratio of cross linked SU-22 to protein (100 nM K316E/D391K/R459E GAC, 10 μM SU-22, UV, A350/A280): 0.78
efficiency of cross linking compared with dimer (D391K) or WT GAC (UV exposure, SDS-PAGE): more efficient
